In US20150181873A1, “HERBICIDE-RESISTANT SUNFLOWER PLANTS, POLYNUCLEOTIDES ENCODING HERBICIDE=RESISTANT ACETO HYDROXY ACID SYNTHASE LARGE SUBUNIT PROTEINS, AND METHODS OF USE” (NIDERA S.A., priority 2013, published 2015):

System: sunflower hybrid TH11 (A122T)
Experiment: Greenhouse imazapir dose response, TH11
Format: in vivo, Helianthus annuus
Conditions: 14 DAT
Experimental: A greenhouse study was conducted to quantify and contrast the imazapir sensivity of the mutants A122T and A205V in different genetic backgrounds at the whole plant level in sunflower. Seeds of the different sunflower lines that were used in this study were obtained under field conditions.
Seeds were sown in Petri dishes and, after germination, plantlets were transplanted to pots of 10 cm of diameter in a potting media consisting of equal parts of vermiculite, soil and sand. Plants were grown in a greenhouse under natural light conditions supplemented with 400 W sodium halide lamps to provide a 16 hrs daylength. Day/night temperatures were 25 and 20° C., respectively. At the V2 stage 10 plants of each genotype were randomly assigned to each treatment consisting of […] imazapir doses (0, 40, 80, 160, 240, 320, 400 and 480 g ai/ha), and a zero-time biomass determination. Experiment was arranged as a randomized block design with a full factorial (sunflower line×treatment) arrangement of treatments and 10 replications.
On the day of herbicide application ten plants of each genotype were cut at the cotyledonal node and dried at 60° C. for 48 hrs zero-time for dried weight determination. […] Height was determined as the distance between the cotyledonal node and the apex of each plant. For root biomass determination, each plant was taken from the pot and the potting media was washed out from the roots. Above ground biomass data from each line were converted to biomass accumulation after application by subtracting the appropriate average zero-time biomass from each sample. Dry biomass data were converted to percentages of the untreated control plants within each line to allow direct comparisons between groups.

CC(C)C1(C)N=C(c2ncccc2C(=O)O)NC1=O (stereo not shown) [Imazapyr, imazapyr] was tested, and the “Phytotoxicity Index” value (0.5x (40 g ai/ha)) was 0.4, the “biomass accumulation, % of untreated” value (0.5x (40 g ai/ha)) was 96.6% and the “plant height, % of untreated” value (0.5x (40 g ai/ha)) was 100.4%. The “root dry weight, % of untreated” value (0.5x (40 g ai/ha)) was 100%, the “Phytotoxicity Index” value (1x (80 g ai/ha)) was 0.4 and the “biomass accumulation, % of untreated” value (1x (80 g ai/ha)) was 93.9%. The “plant height, % of untreated” value (1x (80 g ai/ha)) was 99.9%, the “root dry weight, % of untreated” value (1x (80 g ai/ha)) was 99.0% and the “Phytotoxicity Index” value (2x (160 g ai/ha)) was 0.4. For the same compound, the “biomass accumulation, % of untreated” value (2x (160 g ai/ha)) was 81.6%, the “plant height, % of untreated” value (2x (160 g ai/ha)) was 92.0% and the “root dry weight, % of untreated” value (2x (160 g ai/ha)) was 86.1%. The “Phytotoxicity Index” value (3x (240 g ai/ha)) was 0.5, the “biomass accumulation, % of untreated” value (3x (240 g ai/ha)) was 75.8% and the “plant height, % of untreated” value (3x (240 g ai/ha)) was 90.5%. For the same compound, the “root dry weight, % of untreated” value (3x (240 g ai/ha)) was 81.5%, the “Phytotoxicity Index” value (4x (320 g ai/ha)) was 1.0 and the “biomass accumulation, % of untreated” value (4x (320 g ai/ha)) was 75.0%. For the same compound, the “plant height, % of untreated” value (4x (320 g ai/ha)) was 90.8%, the “root dry weight, % of untreated” value (4x (320 g ai/ha)) was 72.6% and the “Phytotoxicity Index” value (5x (400 g ai/ha)) was 2.0. For the same compound, the “biomass accumulation, % of untreated” value (5x (400 g ai/ha)) was 60.1%, the “plant height, % of untreated” value (5x (400 g ai/ha)) was 84.4% and the “root dry weight, % of untreated” value (5x (400 g ai/ha)) was 68.9%. The “Phytotoxicity Index” value (6x (480 g ai/ha)) was 2.5, the “biomass accumulation, % of untreated” value (6x (480 g ai/ha)) was 59.6% and the “plant height, % of untreated” value (6x (480 g ai/ha)) was 84.4%. The “root dry weight, % of untreated” value (6x (480 g ai/ha)) was 45.3%.
